Assay results from patent US9409905B2, “Antibacterial compounds and methods for use” (PTC THERAPEUTICS, INC., priority 2011, dated 2016).
In brackets after ≈: the same amount, converted by molar mass.

Columns and labels:
[1] = tested on: Staphylococcus aureus (S. aureus) 29213; test: Antibacterial activity, microbroth dilution MIC (Table 1); assay type: cell-based; conditions: microbroth dilution, Gram-positive S. aureus 29213, read-out: MIC, 29213
Method in brief: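 Lowest concentration stopping macroscopically visible growth under test conditions, by broth microdilution, defines the MIC (μg/mL).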

[2] = tested on: Escherichia coli (E. coli) BAS849; test: as above; assay type: cell-based; conditions: microbroth dilution, super sensitive Gram-negative E. coli BAS849, read-out: MIC, BAS849
Method in brief: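 MIC (μg/mL) is taken as the lowest concentration with no macroscopically visible growth. Strains tested by microbroth dilution: Gram-positive S. aureus 29213, control Gram-negative E. coli 25922, and super-sensitive E. coli BAS849.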

E. coli 25922 = test: as above; assay type: cell-based, Escherichia coli; conditions: Escherichia coli; microbroth dilution; control Gram-negative E. coli 25922 strain; read-out: MIC, 25922
Method in brief: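 Values are MICs (μg/mL): the smallest drug amount at which macroscopically visible bacterial growth is absent under assay conditions, from a microdilution method in broth.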

E. coli LZ3111 = test: Antibacterial activity, MIC, quinolone resistant strain (Table 2); assay type: cell-based; conditions: Escherichia coli, LZ3111, read-out: MIC LZ3111
Method in brief: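 Broth microdilution. Read-out: MIC in μg/mL, taken as lowest concentration with no macroscopically visible growth.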

[3] = tested on: Klebsiella pneumoniae (K. pneumoniae) 35657; test: Antibacterial activity, MIC (Table 4); assay type: cell-based; conditions: K. pneumoniae 35657, read-out: MIC, 35657
Text: (§1) The antibacterial activity from a microbroth dilution method may be presented as the minimum inhibitory concentration (MIC in μg/mL). The MIC value is the lowest concentration of drug which prevents macroscopically visible growth under test conditions.
(§2) Antibacterial activity of test compounds against the Gram-negative Acinetobacter baumannii (A. baumannii) BAA747 and Klebsiella pneumoniae (K. pneumoniae) 35657 bacterium and the resistant A. baumannii MXX2240 and K. pneumoniae MXX1232 strains are shown in Table 4. The MMX strains are multi-drug resistant clinical isolates.

[4] = tested on: Acinetobacter baumannii (A. baumannii) BAA747; test: Antibacterial activity, MIC (Table 4); assay type: cell-based; conditions: A. baumannii BAA747, read-out: MIC, BAA747
Text: as §1, §2

[5] = tested on: Pseudomonas aeruginosa (P. aeruginosa) 27853; test: Antibacterial activity, MIC (Table 5); assay type: cell-based; conditions: P. aeruginosa 27853, read-out: MIC, 27853
Text: as §1
Antibacterial activity of test compounds against the Gram-negative bacterium Pseudomonas aeruginosa (P. aeruginosa) 27853 is shown in Table 5.

SMILES	MIC [1] [µg/mL]	MIC [2] [µg/mL]	MIC (E. coli 25922) [µg/mL]	MIC (E. coli LZ3111) [µg/mL]	MIC [3] [µg/mL]	MIC [4] [µg/mL]	MIC [5] [µg/mL]
CCc1cc(C(=O)O)c(=O)[nH]c1-c1ccc2c(c1)cc(CN1CCC(O)C1)n2C (centres unmarked) [Cpd 125, 5-ethyl-6-(2-((3-hydroxypyrrolidin-1-yl)methyl)-1-methyl-1H-indol-5-yl)-2-oxo-1,2-dihydropyridine-3-carboxylic acid]	12.5 to 150 (≈ 31.6 to 379 µM)	< 1	1 to 3.5 (≈ 2.53 to 8.85 µM)	12.5 to 150 (≈ 31.6 to 379 µM)	< 1	12.5 to 150 (≈ 31.6 to 379 µM)	12.5 to 150 (≈ 31.6 to 379 µM)
CCc1cc(C(=O)O)c(=O)[nH]c1-c1ccc2c(c1)cc(CN1CCCC1c1ccccc1)n2C (centres unmarked) [Cpd 131, 5-ethyl-6-(1-methyl-2-((2-phenylpyrrolidin-1-yl)methyl)-1H-indol-5-yl)-2-oxo-1,2-dihydropyridine-3-carboxylic acid]	1 to 3.5 (≈ 2.2 to 7.68 µM)	< 1	1 to 3.5 (≈ 2.2 to 7.68 µM)	12.5 to 150 (≈ 27.4 to 329 µM)	12.5 to 150 (≈ 27.4 to 329 µM)	3.5 to 12.5 (≈ 7.68 to 27.4 µM)	12.5 to 150 (≈ 27.4 to 329 µM)
CCc1c(-c2ccc3c(c2)cc(CN(C)CCOC)n3C)[nH]c(=O)c(C(=O)O)c1O [Cpd 300, 5-ethyl-4-hydroxy-6-(2-(((2-methoxyethyl)(methyl)amino)methyl)-1-methyl-1H-indol-5-yl)-2-oxo-1,2-dihydropyridine-3-carboxylic acid]	12.5 to 150 (≈ 30.2 to 363 µM)	< 1	3.5 to 12.5 (≈ 8.46 to 30.2 µM)	12.5 to 150 (≈ 30.2 to 363 µM)			
CCc1c(-c2ccc3c(c2)cc(CNCC2CCCCCC2)n3C)[nH]c(=O)c(C(=O)O)c1O [Cpd 301, 6-(2-((cycloheptylmethylamino)methyl)-1-methyl-1H-indol-5-yl)-5-ethyl-4-hydroxy-2-oxo-1,2-dihydropyridine-3-carboxylic acid]	3.5 to 12.5 (≈ 7.75 to 27.7 µM)	< 1	12.5 to 150 (≈ 27.7 to 332 µM)	12.5 to 150 (≈ 27.7 to 332 µM)			
CCc1c(-c2ccc3c(c2)cc(CN(C)CCN(C)C)n3C)[nH]c(=O)c(C(=O)O)c1O [Cpd 303, 6-(2-(((2-(dimethylamino)ethyl)(methyl)amino)methyl)-1-methyl-1H-indol-5-yl)-5-ethyl-4-hydroxy-2-oxo-1,2-dihydropyridine-3-carboxylic acid]	12.5 to 150 (≈ 29.3 to 352 µM)	< 1	3.5 to 12.5 (≈ 8.21 to 29.3 µM)	12.5 to 150 (≈ 29.3 to 352 µM)			
CCc1c(-c2ccc3c(c2)cc(C(C)(C)N2CCCC2)n3C)[nH]c(=O)c(C(=O)O)c1O [Cpd 307, 5-ethyl-4-hydroxy-6-(1-methyl-2-(2-(pyrrolidin-1-yl)propan-2-yl)-1H-indol-5-yl)-2-oxo-1,2-dihydropyridine-3-carboxylic acid]	1 to 3.5 (≈ 2.36 to 8.26 µM)	< 1	12.5 to 150 (≈ 29.5 to 354 µM)	12.5 to 150 (≈ 29.5 to 354 µM)			
CCc1c(-c2ccc3c(c2)cc(C(C)(C)N(C)C)n3C)[nH]c(=O)c(C(=O)O)c1O [Cpd 308, 6-(2-(2-(dimethylamino)propan-2-yl)-1-methyl-1H-indol-5-yl)-5-ethyl-4-hydroxy-2-oxo-1,2-dihydropyridine-3-carboxylic acid]	1 to 3.5 (≈ 2.52 to 8.81 µM)	< 1	12.5 to 150 (≈ 31.4 to 377 µM)	12.5 to 150 (≈ 31.4 to 377 µM)			
Cn1c(CN2CCCC2)cc2cc(-c3[nH]c(=O)c(C(=O)O)c(O)c3-c3ccc(F)cc3)ccc21 [Cpd 309, 5-(4-fluorophenyl)-4-hydroxy-6-(1-methyl-2-(pyrrolidin-1-ylmethyl)-1H-indol-5-yl)-2-oxo-1,2-dihydropyridine-3-carboxylic acid]	12.5 to 150 (≈ 27.1 to 325 µM)	< 1	3.5 to 12.5 (≈ 7.58 to 27.1 µM)	12.5 to 150 (≈ 27.1 to 325 µM)			
CN(C)Cc1cc2cc(-c3[nH]c(=O)c(C(=O)O)c(O)c3-c3ccc(F)cc3)ccc2n1C [Cpd 310, 6-(2-((dimethylamino)methyl)-1-methyl-1H-indol-5-yl)-5-(4-fluorophenyl)-4-hydroxy-2-oxo-1,2-dihydropyridine-3-carboxylic acid]	12.5 to 150 (≈ 28.7 to 344 µM)	< 1	3.5 to 12.5 (≈ 8.04 to 28.7 µM)	12.5 to 150 (≈ 28.7 to 344 µM)			
Cn1c(CNCC2CC2)cc2cc(-c3[nH]c(=O)c(C(=O)O)c(O)c3-c3ccc(F)cc3)ccc21 [Cpd 311, 6-(2-((cyclopropylmethylamino)methyl)-1-methyl-1H-indol-5-yl)-5-(4-fluorophenyl)-4-hydroxy-2-oxo-1,2-dihydropyridine-3-carboxylic acid]	12.5 to 150 (≈ 27.1 to 325 µM)	< 1	1 to 3.5 (≈ 2.17 to 7.58 µM)	12.5 to 150 (≈ 27.1 to 325 µM)			
Cn1c(CN2CCC2)cc2cc(-c3[nH]c(=O)c(C(=O)O)c(O)c3-c3ccc(F)cc3)ccc21 [Cpd 312, 6-(2-(azetidin-1-ylmethyl)-1-methyl-1H-indol-5-yl)-5-(4-fluorophenyl)-4-hydroxy-2-oxo-1,2-dihydropyridine-3-carboxylic acid]	12.5 to 150 (≈ 27.9 to 335 µM)	< 1	3.5 to 12.5 (≈ 7.82 to 27.9 µM)	12.5 to 150 (≈ 27.9 to 335 µM)			
